{"source": "patent US6551774B1", "about": "“Diagnostic methods for conditions associated with elevated cellular levels of telomerase activity” (Board of Regents, The University of Texas System, priority 1992, dated 2003)", "key": {"[1]": {"system": "IMR-90 human lung fibroblasts", "experiment": "Proliferative lifespan of IMR-90 fibroblasts fed oligonucleotides (Example 1)", "type": "cell-based", "text": "The efficacy of the CTO-12 oligonucleotide (5′-[…]-3′ Seq. ID No. 2) to reduce telomere shortening associated with cellular senescence (FIG. 1) was studied using target cells cultured under standard cell culture conditions in minimal essential medium supplemented with 10% fetal calf serum. The cells were subcultivated every four days by trypsinization upon reaching confluency and were fed new medium at subcultivation or every two days, whichever came first. Cells at various population doubling levels were seeded at 10,000 cells per well and fed medium containing oligonucleotides at various concentrations. oligonucleotides studied were the cytidine-rich terminal oligonucleotide (CTO-12), guanidine-rich terminal oligonucleotide-12 bp (GTO-12, having the sequence 5′-[…]-3′ (SEQ ID NO:19), and a 12 base pair randomer with a random nucleotide in every position. As an additional control, cells were fed identical medium without oligonucleotide. Cells were fed oligonucleotide every 48 hours from 10×stocks. (Such oligonucleotides may be modified to enhance stability, e.g., with phosphorothioates, dithioate and 2-O-methyl RNA.) In the case of phosphorothioates it would be desirable to use longer CTO primers such as 5′-[…]-3′(SEQ ID NO:20), 5′-[…]-3′(SEQ ID NO:21), or 5′-[…]-3′(SEQ ID NO:22). […]"}, "[2]": {"system": "MDA 157 human breast cancer cells", "experiment": "Proliferation of MDA 157 cancer cells fed oligonucleotides (Example 2)", "type": "cell-based", "conditions": "1.0 μM CTO-12", "experimental": "Specifically, MDA 157 human breast cancer cells with an immortal phenotype were seeded at 10,000 cells per well in 12 well tissue culture dishes and fed medium only or medium supplemented with GTO-12 (at 1.0 μM, 0.1 μM, and 0.01 μM). […] Cells fed the GTO-12 oligonucleotide, at 1.0 μM, however, ceased to proliferate after less than 10 doubling. […] The lack of effect of the G+C mixture may reflect the CTO-12 oligonucleotide, competing with or base pairing with the GTO-12 oligonucleotide, this preventing its inhibitory effect on the cancer cell telomerase."}, "[3]": {"system": "HME31E6 cells", "experiment": "TRF shortening in HME31E6 cells cultured with CTO (Example 10)", "type": "cell-based, human", "conditions": "3, 10, 30 and 100 μM, between PDL 36 and 50", "text": "As in Example 1, the change in proliferative lifespan and rate of telomere shortening in cultured mammary epithelial cells treated with the indicated amounts of CTO (occasionally referred to as C-Rich Terminal Repeat (CTR)) versus control random oligonucleotides. Normal human mammary epithelial cells from a donor (31) were infected with the E6 gene of human papilloma virus 16. This gene product binds p53 protein and permits HME31 cells to have extended life span by proliferating from PDL 42 to PDL 62 when crisis occurs. During this extended lifespan period the TRFs shorten from an average of approximately 5 kb to 2.5 kb (compare in FIG. 12 HME31 PD 40 to HME31E6 PD 68).\nAs controls the cells were cultured without oligonucleotides (nil) or with 30 μM random oligonucleotide. […] This is most easily seen by examining the subpopulation of telomere TRFs that migrate more slowly than the rest, giving a discrete trailing band. Cells were maintained in logarithmic growth with medium changed and fresh oligonucleotide added three times per week."}, "[4]": {"system": "HME31E6 cells", "experiment": "Replicative lifespan of HME31E6 cells cultured with CTR (Example 10)", "type": "cell-based, human", "conditions": "30 μM and 100 μM", "experimental": "Human mammary epithelial cells expressing HPV16 E6 bypass M1 and have extended replicative lifespan. HME31 Cells normally senesce at PDL 42-45. When expressing […] they will bypass M1 and divide until they reach crisis (M2) at PDL 53-62. The TRFs in HME31 (E6) cells at PDL 40 are approximately 5-6 Kb while at PDL 62 they are 3-4 Kb (see FIG. 12). […] As controls, the cells were cultured without oligonucleotide (control), or with a 30 μM random oligonucleotide with the base content matched to the CTR oligonucleotide. […] The control cells divided approximately 20 times during the experiment, whereas the CTR-treated cells divided at least 40-50 times."}, "[5]": {"system": "IMR-90 lung fibroblasts", "experiment": "Life span of IMR-90 lung fibroblasts treated with phosphodiester CTO (Example 11)", "type": "cell-based, human", "experimental": "Referring to FIG. 14, IMR-90 lung fibroblasts TRFat PDL 30 were treated with 10 μM, 30 μM or 100 μM phosphodiester CTO or with only media addition (control). The cells were cultured in medium containing regular defined supplemented calf serum. The cells were passaged in 24 well dishes and subcultivated by trypsinization upon reaching confluency at 25,000 cells per well. The cells were fed medium containing oligonucleotides at various concentrations daily. As a control, cells were fed identical medium without oligonucleotides. As is illustrated in FIG. 14, there was approximately a 12-15% extension of total life span with CTO. In these experiments the control cells divided approximately 15-18 times during the experiment, whereas the treated cells divided 23-26 times. IMR-90 telomeres shorten approximately 50 b.p. per division and the TRF length of the control IMR-90 fibroblasts at senescence was approximately 9 kb. Since the 100 μM CTO-treated IMR-90 cells senesced at PDL 55, the predicted difference in the rate of TRF loss between the control and the 100 μM CTO (9 kb vs 9.4 kb) is too small to be resolved using current techniques."}, "[6]": {"system": "SW26 cells", "experiment": "Frequency of escape from crisis (immortalization) of SW26 cells, fluctuation analysis", "type": "cell-based, human", "conditions": "bleomycin sulfate 25 μg/ml for two hours; LNL6 infection with 2 μg/ml polybrene", "text": "The frequency of escape from crisis (e.g., the immortalization frequency of T-antigen expressing cells) was estimated using an approach based on what is essentially a fluctuation analysis as previously described (Shay, J. W., and Wright, W. E. (1989) Exp. Cell Res. 184, 109-118). SW26 cells (a clone isolated from IMR 90 normal human lung fibroblasts transfected with a vector expressing SV40 large T antigen) were expanded approximately 15 PDL's before crisis into multiple series at a constant cell density of 6667 cells/cm^2. Each series was subsequently maintained as a separate culture, so that at the end of the experiment the fraction of each series that gave rise to immortal cell lines could be determined. Cultures were split at or just prior to confluence at 6667 cells/cm^2. […]\nThe remainder of the dishes were used as controls (70 dishes) or infected with LNL6 defective retrovirus (100 dishes). […] Within a few days after infection, all control and experimental dishes were counted and each dish contained 1-2×10^6 cells. The PDL of each dish was calculated and cells were then replated at 0.33×10^6 in 50 cm^2 dishes and maintained separately to conduct the fluctuation analysis.\nImmortalization is expressed as the number of immortal lines per number of culture series, each series being derived from a single dish at the initiation of the experiment. […]"}, "[7]": {"system": "IMR-90 SW26 cells", "experiment": "Cell death of IMR-90 SW26 cells on bleomycin sulfate treatment", "type": "cell-based, human", "conditions": "25 μg/ml for two hours in serum free medium", "experimental": "SW 26 cells enter crisis at approximately PDL 82-85. Numerous vials of SW26 cells (8×10^6 cells/vial) were frozen at PDL 71, and testing verified that spontaneous immortalization events had not yet occurred. Five vials were thawed, scaled up for 4 days to approximately 10^8 cells (thus to approximately PDL 74), then trypsinized and combined into a single pool of cells in 40 ml of medium and distributed into 200 10 cm^2 dishes. Thirty dishes were treated with 25 μg/ml bleomycin sulfate (a chemical mutagen) for two hours in serum free medium one day later."}}, "data": [{"substance": "5′-CCCTAACCCTAA-3′ [CTO-12]", "values": [{"measurement": "doublings of continued proliferation more than control cells", "setting": "[1]; 1.0 μM oligonucleotide, cells seeded at PD45", "result": "approximately 10 doubling"}, {"measurement": "population doubling at which replicative senescence was reached", "setting": "[1]; CTO-12 at less than 1.0 μM (0.1 μM), seeded at PD45", "result": "about 52 population doubling"}, {"measurement": "proliferation phenotype", "setting": "[2]", "result": "continued to express the immortal phenotype"}, {"measurement": "TRF shortening compared to nil control and 30 μM random oligonucleotide", "setting": "[3]", "result": "dose related retardation of TRF shortening"}, {"measurement": "replicative lifespan compared to control and 30 μM random oligonucleotide", "setting": "[4]; started at PDL 36", "result": "dose-related extension of the replicative lifespan"}, {"measurement": "number of cell divisions during the experiment", "setting": "[4]; started at PDL 36, defined medium without serum", "result": "40-50 times"}, {"measurement": "number of cell divisions during the experiment", "setting": "[5]; 10 μM, 30 μM or 100 μM, from PDL 30", "result": "23-26 times"}, {"measurement": "extension of total life span", "setting": "[5]; 10 μM, 30 μM or 100 μM, from PDL 30, fed daily", "result": "12-15%"}, {"measurement": "PDL at senescence", "setting": "[5]; 100 μM", "result": 55, "unit": "PDL"}]}, {"substance": "bleomycin sulfate", "values": [{"measurement": "Frequency (probability of obtaining an immortal cell line based on the number of cells plated at each passage)", "setting": "[6]", "result": "7.7 × 10^−7"}, {"measurement": "Immortalization (number of immortal lines per number of culture series)", "setting": "[6]", "result": "7/27"}, {"measurement": "cells dying", "setting": "[7]", "result": "approximately 50%"}]}]}
